From patent US20180185305A1, “An Amino Thiol for Use in the Treatment of an Infection Caused by the Bacterium Mycobacterium Spp” (NOVABIOTICS LIMITED, priority 2015, published 2018)

Experiments:
Type in all cases: cell-based
Mycobacterium abscessus [1] = experiment: Antimicrobial susceptibility of M. abscessus isolates, CLSI broth microdilution (MIC100); conditions: for MIC: Mycobacteroides abscessus
Method: (§1) Mycobacterium absessus complex (MAC) was isolated from three participating patients. The susceptibility of these isolates, plus the MAC type strain M. abscessus DSMZ44196 to the antimicrobial effects of cysteamine alone and cysteamine combined with antibiotics employed in MAC eradication strategies, (amikacin, azithromycin and meropenem) was assessed by CLSI broth microdilution procedure [CLSI, 2012] and checkerboard assay respectively.

[2] = system: polymicrobial load in CF sputum; experiment: Effect of cysteamine and antibiotics on CF sputum microbial burden: single exposure; conditions: overall over 4 and 24 h exposure; for reduction of polymicrobial load: cysteamine 1 mg/ml
Method: Sputum samples were processed for antimicrobial activity within 4 h of collection. To assess the antimicrobial impact of cysteamine alone and cysteamine in conjunction with antibiotics commonly used to treat infective exacerbations of CF lung disease, 0.2 ml of each sputum sample sputum was diluted ten fold in sterile phosphate buffered saline (PBS) and vortexed. Aliquots (0.2 ml) of the homogenised diluted sample were exposed to cysteamine only (1 mg/ml), [ ] antibiotic (tobramycin [0.1 mg/ml] or ciprofloxacin, [0.1 mg/ml] only, cysteamine plus antibiotic or vehicle (PBS) only, for 4 and 24 h at 37° C. Sputum samples were then serially diluted 10-fold (1×10^−1 to 1×10^−8) and spread-plated on non-selective nutrient agar plates. Cultures were incubated at 37° C. and cfu/ml of bacteria quantified at 48 h.
FEV1 was expressed as a percentage of predicted using GLI 2012 reference equations. Sputum microbial load expressed as colony forming units approximated to a log-normal distribution and was therefore logarithmically transformed to base 10. Microbial load after incubation with cysteamine, tobramycin, ciprofloxacin after 4 and 24 hours was modelled using two way repeated measures ANOVA with post hoc testing using Bonferroni adjustment. Analyses were performed using IBM SPSS Statistics for Windows, v22.0 (Armonk, N.Y.).

Mycobacterium abscessus [3] = experiment: Checkerboard assay of cysteamine combined with antibiotics, fractional inhibitory concentration index
Method: The Fractional Inhibitory Concentration (FIC) corresponds to an interaction coefficient indicating whether the combination of antimicrobial agents is synergistic, additive, antagonist or neutral. The FIC is determined by comparing the activity of an agent in combination (MIC of agent A+agent B) with the activity of the agent alone (MIC of agent A or agent B) as follow (Singh et al., 2000):
FIC=MICA[combition]/MICA[alone]+MICB[combination]/MICB[alone]
Additive combinations of two antimicrobial agents are indicated by a FIC index of 1, whereas a FIC index <1 indicates synergistic combinations. Neutral combinations would give a FIC between 1 and 4, a FIC index higher than 4 indicates antagonist effects between the two antimicrobial agents.
as §1

[4] = DSM44196, strain DSM44196 (type)
[5] = nine samples, ciprofloxacin 0.1 mg/ml
[6] = 23 samples, tobramycin 0.1 mg/ml, mean (95% CI)

| SMILES | MIC (Mycobacterium abscessus [1]; [4]) | MIC (Mycobacterium abscessus [1]; strain MR27419N (clinical)) | MIC (Mycobacterium abscessus [1]; strain MR313292 (clinical)) | MIC (Mycobacterium abscessus [1]; strain MR313367D (clinical)) | MIC range (Mycobacterium abscessus [1]; M. abscessus isolated from three study subjects) | reduction of polymicrobial load [2, 5] | effect of cysteamine on the impact of amikacin (by FICI) (Mycobacterium abscessus [3]; clinical and type strains) | effect of cysteamine on the impact of azithromycin (by FICI) (Mycobacterium abscessus [3]; clinical and type strains) | effect of cysteamine on meropenem sensitivity (Mycobacterium abscessus [3]; clinical isolates and type strain) | reduction of polymicrobial load [2, 6] | further reduction of polymicrobial load compared with tobramycin ([2]; 23 samples) | further reduction of polymicrobial load compared with ciprofloxacin ([2]; nine samples) |
| --- | --- | --- | --- | --- | --- | --- | --- | --- | --- | --- | --- | --- |
| O=C(O)c1cn(C2CC2)c2cc(N3CCNCC3)c(F)cc2c1=O [Ciprofloxacin] |  |  |  |  |  | 0.84 log10 units |  |  |  |  |  |  |
| NCCS [Cysteamine, cysteamine] | 62.5 to 125 µg/mL | 125 µg/mL | 125 to 250 µg/mL | 62.5 to 125 µg/mL | 62.5 to 250 µg/mL | 2.76 log10 units | potentiated the impact of amikacin in both clinical and type strains | azithromycin in all but one clinical strain | showing some concentration-specific antagonism | 3.18 (2.30-4.07) log10 units | 1.76 log10 units | 1.92 log10 units |
| C[C@@H](O)[C@H]1C(=O)N2C(C(=O)O)=C(S[C@@H]3CN[C@H](C(=O)N(C)C)C3)[C@H](C)[C@H]12 [Meropenem] | 64 µg/mL | 64 µg/mL | 16 to 64 µg/mL | 16 to 64 µg/mL |  |  |  |  |  |  |  |  |
| NC[C@H]1O[C@H](O[C@H]2[C@H](O)[C@@H](O[C@H]3O[C@H](CO)[C@@H](O)[C@H](N)[C@H]3O)[C@H](N)C[C@@H]2N)[C@H](N)C[C@@H]1O [Tobramycin] |  |  |  |  |  |  |  |  |  | 1.42 (95% CI 0.92-1.92) log10 units |  |  |

More lines, main results first:

| MIC (Mycobacterium abscessus [1]; [4]) | MIC (Mycobacterium abscessus [1]; strain MR27419N (clinical)) | MIC (Mycobacterium abscessus [1]; strain MR313292 (clinical)) | MIC (Mycobacterium abscessus [1]; strain MR313367D (clinical)) | MIC range (Mycobacterium abscessus [1]; M. abscessus isolated from three study subjects) | SMILES | reduction of polymicrobial load [2, 5] | effect of cysteamine on the impact of amikacin (by FICI) (Mycobacterium abscessus [3]; clinical and type strains) | effect of cysteamine on the impact of azithromycin (by FICI) (Mycobacterium abscessus [3]; clinical and type strains) | effect of cysteamine on meropenem sensitivity (Mycobacterium abscessus [3]; clinical isolates and type strain) | reduction of polymicrobial load [2, 6] | further reduction of polymicrobial load compared with tobramycin ([2]; 23 samples) | further reduction of polymicrobial load compared with ciprofloxacin ([2]; nine samples) |
| --- | --- | --- | --- | --- | --- | --- | --- | --- | --- | --- | --- | --- |
| 4 to 8 µg/mL | 16 µg/mL | 4 µg/mL | 16 µg/mL |  | NCC[C@H](O)C(=O)N[C@@H]1C[C@H](N)[C@@H](O[C@H]2O[C@H](CN)[C@@H](O)[C@H](O)[C@H]2O)[C@H](O)[C@H]1O[C@H]1O[C@H](CO)[C@@H](O)[C@H](N)[C@H]1O [Amikacin] |  |  |  |  |  |  |  |
| 1 to 2 µg/mL | 1 µg/mL | 8 µg/mL | 1 µg/mL |  | CC[C@H]1OC(=O)[C@H](C)[C@@H](O[C@H]2C[C@@](C)(OC)[C@@H](O)[C@H](C)O2)[C@H](C)[C@@H](O[C@@H]2O[C@H](C)C[C@H](N(C)C)[C@H]2O)[C@](C)(O)C[C@@H](C)CN(C)[C@H](C)[C@@H](O)[C@]1(C)O [Azithromycin] |  |  |  |  |  |  |  |
